Data from patent publication US12440498B2 (priority 2020, dated 2025).

Key:
A/H1N1 virus = test: microbe, parasite or virus in culture; format: cell-based, influenza A virus; conditions: Influenza A virus, H1N1, MDCK, read-out: IC50 baloxavir (active form)
[1] = tested on: influenza virus with M431I substitution in PB2; conditions: cited from earlier work
[2] = tested on: A/H1N1 I38T (I38T mutation on the PA subunit, baloxavir-resistant); format: cell-based, influenza A virus

Structure (SMILES): O=C1c2c(O)c(=O)ccn2N([C@@H]2c3ccccc3SCc3c2ccc(F)c3F)[C@@H]2COCCN12 [baloxavir, baloxavir acid]
- IC50 (A/H1N1 virus): 0.2 nM

Structure (SMILES): O=C(O)[C@H]1C2CCC(CC2)[C@@H]1Nc1nc(-c2c[nH]c3ncc(F)cc23)ncc1F [pimodivir]
- decrease in sensitivity [1]: around 60 fold

Structure (SMILES): COc1ccc([C@@H]2Sc3ccccc3N(CCN(C)C)C(=O)[C@@H]2OC(C)=O)cc1.Cl [diltiazem]
- transepithelial resistance (TEER), integrity of infected epithelia [2]: remain stable
